Key:
[1] = target: T1, Thyroid hormone receptor alpha (Homo sapiens, UniProt P10827); assay: Inhibition of TRalpha-LBD (unknown origin) interaction to texas red-labeled SRC2-2 peptide by fluorescence polarization assay
T1 sequence (P10827 whole entry): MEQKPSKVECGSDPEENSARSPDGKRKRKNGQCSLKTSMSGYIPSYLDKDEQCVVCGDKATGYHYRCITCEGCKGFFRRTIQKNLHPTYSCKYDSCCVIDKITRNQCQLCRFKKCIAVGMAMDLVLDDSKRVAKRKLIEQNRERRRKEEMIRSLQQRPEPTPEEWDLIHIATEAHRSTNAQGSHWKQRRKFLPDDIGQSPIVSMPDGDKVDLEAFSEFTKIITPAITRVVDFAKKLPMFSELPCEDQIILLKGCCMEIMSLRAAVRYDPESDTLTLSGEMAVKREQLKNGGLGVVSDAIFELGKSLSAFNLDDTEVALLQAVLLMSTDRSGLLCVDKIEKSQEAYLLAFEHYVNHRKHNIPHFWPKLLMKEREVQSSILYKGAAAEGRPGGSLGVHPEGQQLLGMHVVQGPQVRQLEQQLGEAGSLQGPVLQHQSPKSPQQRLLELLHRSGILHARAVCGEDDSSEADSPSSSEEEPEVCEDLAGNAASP

Vitamin D3 receptor = target: T2, Vitamin D3 receptor (Homo sapiens, UniProt P11473); assay: Inhibition of VDR (unknown origin) interaction to SRC2-3 peptide by fluorescence polarization assay
T2 sequence (P11473 whole entry): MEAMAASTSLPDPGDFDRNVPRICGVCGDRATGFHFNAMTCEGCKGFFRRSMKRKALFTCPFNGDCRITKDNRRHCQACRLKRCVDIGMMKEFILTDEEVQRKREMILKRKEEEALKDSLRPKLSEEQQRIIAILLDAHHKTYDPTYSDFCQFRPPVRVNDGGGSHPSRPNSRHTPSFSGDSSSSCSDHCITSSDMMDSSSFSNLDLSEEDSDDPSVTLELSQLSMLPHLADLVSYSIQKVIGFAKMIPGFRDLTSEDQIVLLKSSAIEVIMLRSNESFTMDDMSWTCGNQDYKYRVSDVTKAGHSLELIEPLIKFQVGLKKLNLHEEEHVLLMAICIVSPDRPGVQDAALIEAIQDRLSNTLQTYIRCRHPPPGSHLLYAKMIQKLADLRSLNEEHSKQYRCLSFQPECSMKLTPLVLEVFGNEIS

HepG2 = assay: Cytotoxicity against human HepG2 cells assessed as ATP level after 72 hrs by CellTiter-Glo assay; type: cell-based; conditions: HepG2, 72 h
[2] = target: T3, Thyroid hormone receptor beta (Homo sapiens, UniProt P10828); assay: Inhibition of TRbeta-LBD (unknown origin) interaction to texas red-labeled SRC2-2 peptide by fluorescence polarization assay
T3 sequence (P10828 whole entry): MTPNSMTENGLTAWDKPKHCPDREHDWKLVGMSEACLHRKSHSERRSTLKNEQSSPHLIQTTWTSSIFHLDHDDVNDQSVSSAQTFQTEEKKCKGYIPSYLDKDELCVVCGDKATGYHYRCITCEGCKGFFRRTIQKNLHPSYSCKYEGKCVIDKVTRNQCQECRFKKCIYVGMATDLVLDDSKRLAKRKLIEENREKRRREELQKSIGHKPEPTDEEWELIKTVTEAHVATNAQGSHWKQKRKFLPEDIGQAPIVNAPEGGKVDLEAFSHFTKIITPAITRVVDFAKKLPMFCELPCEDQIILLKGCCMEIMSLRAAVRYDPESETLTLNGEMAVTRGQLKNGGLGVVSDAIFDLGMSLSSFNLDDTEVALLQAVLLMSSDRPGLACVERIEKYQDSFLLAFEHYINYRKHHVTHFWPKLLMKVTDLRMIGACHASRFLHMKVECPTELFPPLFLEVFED

Row | SMILES | IC50 [1] | IC50 (Vitamin D3 receptor) | EC50 (HepG2) | IC50 [2]
1 | CC1Cc2ccccc2N1C(=O)CCNC(=O)c1ccc(S(C)(=O)=O)c([N+](=O)[O-])c1 (centres undefined) | > 60 µM | 55 µM | > 27 µM | > 60 µM
2 | CS(=O)(=O)c1ccc(C(=O)NCCC(=O)N2CCN(c3ccccc3)CC2)cc1[N+](=O)[O-] | > 60 µM | > 60 µM | > 27 µM | > 60 µM
3 | CC(C)N(C(=O)CNC(=O)c1ccc(S(C)(=O)=O)c([N+](=O)[O-])c1)C(C)C | > 60 µM | > 60 µM | > 27 µM | > 60 µM
4 | CS(=O)(=O)c1ccc(C(=O)NCCC(=O)N2CCN(c3ccccc3F)CC2)cc1[N+](=O)[O-] | > 60 µM | 66 µM | > 27 µM | > 60 µM
5 | CN(CC(=O)N1CCC(c2ccccc2)CC1)C(=O)c1ccc(S(C)(=O)=O)c([N+](=O)[O-])c1 | > 60 µM | > 60 µM | > 27 µM | > 60 µM
6 | CN(Cc1ccccc1)C(=O)C1CCN(C(=O)c2ccc(S(C)(=O)=O)c([N+](=O)[O-])c2)CC1 | > 60 µM | > 60 µM | > 27 µM | > 60 µM
7 | Cc1ccc(N2CCN(C(=O)CN(C)C(=O)c3ccc(S(C)(=O)=O)c([N+](=O)[O-])c3)CC2)cc1 | > 60 µM | > 60 µM | > 27 µM | > 60 µM
8 | CC1Cc2ccccc2N1C(=O)C1CCN(C(=O)c2ccc(S(C)(=O)=O)c([N+](=O)[O-])c2)CC1 (centres undefined) | > 60 µM | > 60 µM | > 27 µM | > 60 µM
9 | CS(=O)(=O)c1ccc(C(=O)NCCCC(=O)N2CCCCC2)cc1[N+](=O)[O-] | > 60 µM | > 60 µM | > 27 µM | > 60 µM
10 | CS(=O)(=O)c1ccc(C(=O)NCCC(=O)N2CCC(c3ccccc3)CC2)cc1[N+](=O)[O-] | > 60 µM | > 60 µM | > 27 µM | > 60 µM
11 | CS(=O)(=O)c1ccc(C(=O)N2CCC(C(=O)N3CCN(c4ccccc4F)CC3)CC2)cc1[N+](=O)[O-] | > 60 µM | > 60 µM | > 27 µM | > 60 µM
12 | CS(=O)(=O)c1ccc(C(=O)N2CCC(C(=O)N(Cc3ccccc3)c3ccccc3)CC2)cc1[N+](=O)[O-] | > 60 µM | > 60 µM | > 27 µM | > 60 µM
13 | CS(=O)(=O)c1ccc(C(=O)NCCCC(=O)N2CCN(c3ccc(C(F)(F)F)cc3)CC2)cc1[N+](=O)[O-] | > 60 µM | 7 µM | 13 µM | > 60 µM
14 | CN(CC(=O)N1CCc2ccccc21)C(=O)c1ccc(S(C)(=O)=O)c([N+](=O)[O-])c1 | > 60 µM | > 60 µM | > 27 µM | > 60 µM
15 | CS(=O)(=O)c1ccc(C(=O)N2CCC(C(=O)N3CCN(c4ccccc4)CC3)CC2)cc1[N+](=O)[O-] | > 60 µM | > 60 µM | > 27 µM | > 60 µM
16 | CS(=O)(=O)c1ccc(C(=O)NCC(=O)N2CCN(c3ccc(F)cc3)CC2)cc1[N+](=O)[O-] | 58 µM | 51 µM | 12.9 µM | > 60 µM
17 | CN(Cc1ccccc1F)C(=O)CNC(=O)c1ccc(S(C)(=O)=O)c([N+](=O)[O-])c1 | > 60 µM | > 60 µM | 11.4 µM | 24 µM
18 | CN(C(=O)CNC(=O)c1ccc(S(C)(=O)=O)c([N+](=O)[O-])c1)c1ccccc1 | 4.2 µM | > 60 µM | > 27 µM | 5.8 µM
19 | CN(Cc1cccc(F)c1)C(=O)CCNC(=O)c1ccc(S(C)(=O)=O)c([N+](=O)[O-])c1 | 29 µM | > 60 µM | 11.2 µM | > 60 µM
20 | CS(=O)(=O)c1ccc(C(=O)NCCCC(=O)N2CCc3ccccc32)cc1[N+](=O)[O-] | > 60 µM | > 60 µM | > 27 µM | > 60 µM
21 | CN(Cc1ccccc1)C(=O)CN(C)C(=O)c1ccc(S(C)(=O)=O)c([N+](=O)[O-])c1 | > 60 µM | > 60 µM | > 27 µM | > 60 µM
